What was measured:
[1] = Absorbance and emission spectra in aqueous buffer with Triton X-100; type: physicochemical; conditions: 5 mM sodium phosphate, pH 9, 0.1% Triton X-100
Experimental: FIG. 8A, FIG. 8B, and FIG. 8C show the normalized absorbance and emission spectra for exemplary compounds of the invention in 5 mM sodium phosphate, pH 9 with 0.1% Triton X-100. Black lines are absorbance spectra; grey lines are emission spectra. a) VF1.4.Cl, b) VF2.4.Cl, and c) VF2.1.Cl.
All dyes feature emission and excitation profiles typical of dichlorofluoresceins (VF1.4.Cl: λmax=521 nm, ε=93,000 M^−1·cm^−1, λem=534 nm, Φ=0.24; VF2.4.Cl: λmax=522 nm, ε=97,000 M^−1·cm^−1, λem=536 nm, Φ=0.054; VF2.1.Cl: λmax=522 nm, ε=98 000 M^−1·cm^−1, λcm=535 nm, Φ=0.057, 5 mM sodium phosphate, pH 9, 0.1% Triton X-100) (FIG. 8).
UV absorbance and fluorescence spectra were recorded on a Cary 3E (Varian) and Fluorolog 2 (Spex) fluorimeter, respectively. Analytical, semi-preparative, and preparative HPLCs were performed on Agilent HPLCs, with Luna C18(2) columns (Phenomenex) using water (solvent A) and acetonitrile (solvent B) with 0.05% TFA as an additive. Low resolution ESI mass spectrometry was performed on an Agilent LC/MSD Trap XCT coupled to an Agilent HPLC. High resolution mass spectra were acquired on a ThermoFisher Orbitrap XL hybrid mass spectrometer. ^1H NMR spectra were collected in CDCl3 or d6-DMSO (Cambridge Isotope Laboratories, Cambridge, Mass.) at 25° C. on a 400 Varian Mercury Plus or Jeol ECA 500 spectrometer at the Department of Chemistry and Biochemistry NMR Facility at the University of California, San Diego. All chemical shifts are reported in the standard δ notation of parts per million using the peak of residual proton signals of CDCl3 or d6-DMSO as an internal reference.

HEK293 cells [2] = assay: Voltage sensitivity of fluorescence in voltage-clamped HEK cells (whole-cell recording); type: cell-based, human
Source text: Membrane voltage of cells loaded with VF1.4.Cl or VF2.4.Cl were controlled by making tight-seal whole-cell recordings. Cells were maintained at a holding potential of −60 mV and stepped for 50 ms to various depolarizing and hyperpolarizing potentials (FIG. 5A), while simultaneously acquiring epifluorescence images. For both sensors, depolarizing steps result in fluorescence increases while hyperpolarizing steps decrease fluorescence intensity, in keeping with our proposed mechanism. […] For di-4-ANEPPS, typical values are 0.08-0.12% per mV. The larger changes for VF1.4.Cl and VF2.4.Cl compared to di-4-ANEPPS are somewhat expected, since a PeT-based voltage sensor samples the entire emission spectrum, whereas electrochromic dyes are limited to the edge of the spectrum only. For both probes, the voltage responses are linear across the physiologically relevant ranges of −100 mV to +100 mV. To assess the speed of the optical response to voltage, VF2.4.Cl signals were monitored in response to voltage steps of 100 mV from a holding potential of −60 mV.
We characterized the voltage sensitivity of all three indicators by making tight-seal whole-cell recordings of HEK293 cells stained with the VF sensors. Cells were voltage-clamped at −60 mV holding potential and sequentially stepped to depolarizing and hyperpolarizing potentials at 20-mV increments (FIG. 9B). For all three dyes, depolarizing steps produced fluorescence increases, whereas hyperpolarizing steps produced fluorescence decreases, in keeping with the proposed PeT mechanism. The fluorescence response is linear over the range of −100 mV to +100 mV (FIG. 9C), with voltage sensitivities ΔF/F per 100 mV of 20±1% for VF1.4.Cl and 25±1% for VF2.4.Cl. This statistically significant increase in voltage sensitivity (P<0.05, two-tailed Student t test) is expected upon increasing the length of the molecular wire, and is 2.5- to 4-times more sensitive than di-4-ANEPPS, which, in our hands, gives sensitivities of between 6% and 10% ΔF/F per 100 mV. […] To investigate the speed of response of VF probes, we again made whole-cell recordings of cells stained with VF2.4.Cl, applied 100-mV depolarizing steps from a holding potential of −60 mV, and recorded both the electrophysiological signals and the optical signals.
Electrophysiological recordings of HEK293 cells and cultured neurons were performed with an Axopatch 200A or 200B amplifier (Molecular Devices) at room temperature. The signals were digitized with Digidata 1332A and recorded with pCLAMP 9 software (Molecular Devices) on a PC. Analysis of electrophysiological data was done with AxoGraph X (AxoGraphX), pCLAMP 9, and/or ClampFit (Molecular Devices). For most experiments the extracellular solution consisted of (in mM) 145 NaCl, 20 glucose, 10 HEPES, 3 KCl, 2 CaCl2, 1 MgCl2 (pH 7.35, 310 mOsm). The intracellular solution contained (in mM) 115 potassium gluconate, 10 BAPTA tetrapotassium salt, 10 HEPES, 5 NaCl, 10 KCl, 2 ATP disodium salt, 0.3 GTP trisodium salt (pH 7.25, 290 mOsm).
For studies to determine excitation sensitivity of dyes, illumination was provided by a Polychrom IV light source (T.I.L.L. Photonics GMBH) with a mechanical shutter (Uniblitz VS25). For all other studies, light was provided by an Xenon arc lamp powered by an Optiquip Power supply (Optiquip) with a mechanical shutter controlled by a Lambda 10-2 controller (Sutter). […]

HEK cells [3] = assay: Bleach rate in HEK cells; type: cell-based, human; conditions: for bleach rate: HEK cells, 7 W/cm^2
Experimental: The dibutyl (VFx.4.Cl) dyes stain the cell membranes of HEK293 cells when loaded at a concentration of 2 μM for 15 min at 37° C. in buffer with 0.1% DMSO as cosolvent (FIG. 9A, and FIG. 10). […] The bleach rates of the probes were tested in HEK cells and compared with di-4-ANEPPS. The bleach rates for VF1.4.Cl, VF2.4.Cl, and VF2.1.Cl at 7 W/cm^2 were measured to be 3.9±0.1×10^−2 s^−1, 1.8±0.1×10^−2 s^−1, and 8.0±0.1×10^−3 s^−1, respectively.
For studies to determine excitation sensitivity of dyes, illumination was provided by a Polychrom IV light source (T.I.L.L. Photonics GMBH) with a mechanical shutter (Uniblitz VS25). For all other studies, light was provided by an Xenon arc lamp powered by an Optiquip Power supply (Optiquip) with a mechanical shutter controlled by a Lambda 10-2 controller (Sutter). Light from the Xenon arc lamp was filtered through a 480 nm filter (30 nm bandpass, Chroma), a 510 nm dichroic (Semrock), a 530 nm emission filter (50 nm bandpass, Semrock), and focused through a 40×/1.4 oil objective. For di-4-ANEPPS imaging, a 625 nm emission filter with a 50 nm bandpass was used. Bleaching studies used identical illumination conditions (480/30 nm excitation, 510 nm dichroic, 7 W/cm^2 output) and were corrected by normalizing for the extinction coefficient at the excitation wavelengths (465-495 nm).

HEK cells [4] = conditions: literature (32); cited from earlier work
HEK293 cells [5] = conditions: typical values for di-4-ANEPPS; cited from earlier work
HEK cells [6] = assay: Excitation wavelength dependence of voltage response in HEK cells; type: cell-based, human; conditions: 100 mV depolarizing steps, excitation 445 to 500 nm in 5 nm increments for VF2.4.Cl
Source text: The ΔF/F for VF2.4.Cl is relatively insensitive to the excitation wavelength. As opposed to di-4-ANEPPS and other electrochromic dyes (ref the biochemistry paper and the ANINNE6 2004 Denk paper), which are highly sensitive to excitation wavelength, PeT-based sensors yield fluorescent responses which are invariant across their excitation spectra. To establish the invariant nature of the fluorescence response, HEK cells were loaded, as before, with VF2.4.Cl and subjected to depolarizing steps of 100 mV, each time varying the excitation wavelength. […] In contrast, di-4-ANEPPS varies by nearly 100%. Excitation at the red edge of the spectrum gives a maximal response whereas excitation at the blue edge gives a response that is some 10- to 20-fold less than the maximal response.
The fluorescence response of VF2.4.Cl to voltage changes is insensitive to the excitation wavelength, as is true for PeT-based probes, such as fluo-3 and Calcium Green-1. We assayed the wavelength dependence of VF2.4.Cl by changing the excitation wavelength in 5-nm steps and determined that the fluorescence response of VF2.4.Cl to a 100-mV depolarization from a holding potential of −60 mV varied only about 15% when testing wavelengths from 445 to 500 nm (FIG. 11C). […]

[7] = system: cultured hippocampal neurons; conditions: cultured hippocampal neurons (25); cited from earlier work

Φ [1]	ε [1]	λem [1]	λmax [1]	bleach rate (HEK cells [3])	bleach rate, fold smaller than di-4-ANEPPS (HEK cells [3]; identical illumination conditions)	SMILES	voltage sensitivity ΔF/F per 100 mV (HEK293 cells [2]; HEK293 cells voltage-clamped at −60 mV holding potential)	sensitivity, fractional fluorescence change (ΔF/F) versus change in membrane potential (HEK293 cells [2]; HEK cells, holding potential −60 mV)	variation of response over excitation spectrum (HEK cells [4])	sensitivity ΔF/F, typical values (HEK293 cells [5])	variation of fractional fluorescence response across excitation spectrum (HEK cells [6])	ΔF/F for action potentials [7]
0.24	93,000 M^−1·cm^−1	534 nm	521 nm	3.9±0.1×10^−2 s^−1	two-	CCCCN(CCCC)c1ccc(/C=C/c2ccc(-c3c4cc(Cl)c(=O)cc-4oc4cc(O)c(Cl)cc34)c(S(=O)(=O)O)c2)cc1 [VF1.4.Cl, (E)-5-(4-(dibutylamino)styryl)-2-(2,7-dichloro-6-hydroxy-3-oxo-3H-xanthen-9-yl)benzenesulfonic acid]	20±1%	0.20±0.01 % per mV	–	–	–	–
–	–	–	–	6.9±0.1×10^−2 s^−1	–	CCCCN(CCCC)c1ccc2cc(/C=C/c3cc[n+](CCCS(=O)(=O)[O-])cc3)ccc2c1 [di-4-ANEPPS]	–	–	~100%	0.08-0.12 % per mV	~100%	–
–	–	–	–	–	–	Cc1ccc(N(CC(=O)O)CC(=O)O)c(OCCOc2cc(-c3c4cc(Cl)c(=O)cc-4oc4cc(O)c(Cl)cc34)ccc2N(CC(=O)O)CC(=O)O)c1 [fluo-3]	–	–	–	–	–	up to 150%

From patent US11187660B2, “Fluorescent probes for monitoring voltage by photo-induced electron transfer” (The Regents of the University of California, priority 2011, dated 2021)
